Data on 19 molecules can be found in patent US20070213355A1, “1H-Imidazo[4,5-C]Quinoline Derivatives in the Treatment of Protein Kinase Dependent Diseases” (priority 2003, published 2007).

pIC50: −log10 of the molar value. Some results are limits rather than exact numbers.

This experiment concerns the target T1, PDK1 (Homo sapiens, UniProt O15530).
T1 construct: release a DNA fragment encoding amino acids 52-556 of PDK1; made in house; host or cells: Sf9 insect cells (baculovirus)
T1 sequence (O15530 52-556): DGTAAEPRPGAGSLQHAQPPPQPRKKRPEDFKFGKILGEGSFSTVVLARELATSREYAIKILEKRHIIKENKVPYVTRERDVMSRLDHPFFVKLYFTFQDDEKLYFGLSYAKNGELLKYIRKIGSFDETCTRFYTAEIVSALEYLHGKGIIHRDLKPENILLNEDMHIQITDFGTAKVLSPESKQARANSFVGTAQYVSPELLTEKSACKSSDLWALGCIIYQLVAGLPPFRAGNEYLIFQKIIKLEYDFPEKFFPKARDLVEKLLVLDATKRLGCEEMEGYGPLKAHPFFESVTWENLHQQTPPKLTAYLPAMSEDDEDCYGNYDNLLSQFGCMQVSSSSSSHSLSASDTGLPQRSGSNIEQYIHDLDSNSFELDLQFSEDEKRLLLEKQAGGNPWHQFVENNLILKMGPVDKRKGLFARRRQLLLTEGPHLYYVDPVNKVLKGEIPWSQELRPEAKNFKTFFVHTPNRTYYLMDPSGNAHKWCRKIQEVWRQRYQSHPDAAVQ
Kind of experiment: PDK1 kinase inhibition, purified GST-PDK1, 33P-ATP filter assay. The class given is biochemical. The conditions noted are these: GST-PDK1, 10.0 μM ATP, casein substrate; read-out: IC50 for PDK1 inhibition (range class). The source says:
PDK1 inhibition can be measured as follows: Cloning and expression: pCMV-GST-PDK1 (G Thomas, FMI Basel, as described in Pullen, N. et al., Science, 279:707-710 (1998)) is digested with EcoR1 and Sma1 to release a DNA fragment encoding amino acids 52-556 of PDK1. This is subsequently ligated to the vector pFB-G01-GST1 with compatible ends achieved by restriction digestion with EcoR1 and Stu1. The ligation reaction is transformed into XL-1 Blue bacteria and plated on selective LB agar. Resultant colonies are cultured overnight, plasmid DNA extracted and restriction analysed. Colonies that are found to contain plasmids with the correct insert are taken for large-scale plasmid preparation and subsequent sequence analysis to confirm the expected plasmid sequence.
Production of virus: Transfer vectors containing the kinase domain of PDK1 are transfected into the DH10Bac cell line (GIBCO) and the cells are plated on selective agar plates. Colonies without insertion of the fusion sequence into the viral genome (carried by the bacteria) are blue. Single, white colonies are picked and viral DNA (bacmid) is isolated from the bacteria by standard plasmid purification procedures. Sf9 cells or Sf21 cells (American Type Culture Collection) are then transfected in 25 cm^2 flasks with the viral DNA using Celifectin reagent.
Protein expression in Sf9 cells: Virus-containing media is collected from the transfected cell culture and used for infection to increase its titer. Virus-containing media obtained after two rounds of infection is used for large-scale protein expression. For large-scale protein expression 100 cm^2 round tissue culture plates are seeded with 5×10^7 cells/plate and infected with 1 mL of virus-containing media (approx. 5 MOIs). After 3 days, the cells are scraped off the plate and centrifuged at 500 rpm for 5 minutes. Cell pellets from 10-20, 100 cm^2 plates are resuspended in 50 mL of ice-cold lysis buffer (25 mM Tris-HCl, pH 7.5, 2 mM EDTA, 1% NP-40, 1 mM DTT, 1 mMP MSF). The cells are stirred on ice for 15 minutes and then centrifuged at 5,000 rpms for 20 minutes.
Purification of GST-tagged proteins: The centrifuged cell lysate is loaded onto a 2 mL glutathione-sepharose column (Pharmacia) and washed 3× with 10 mL of 25 mM Tris-HCl, pH 7.5, 2 mM EDTA, 1 mM DTT, 200 mM NaCl. The GST-tagged proteins are then eluted by 10 applications (1 mL each) of 25 mM Tris-HCl, pH 7.5, 10 mM reduced-glutathione, 100 mM NaCl, 1 mM DTT, 10% glycerol and stored at −70° C.
Measure of enzyme activity: Tyrosine protein kinase assays with purified GST-PDK1 are carried out in a final volume of 30 μL containing 100 ng of enzyme protein, 50 mM HEPES, pH 7.6, 10 mM MgCl2, 1 mM DTT, 10 μM Na3VO4, 100 μg/mL casein, 1% DMSO, 0.1 mM EGTA, pH 8.0, 10.0 μM ATP and 0.1 μCi [γ-^33P] ATP. The activity is assayed in the presence or absence of inhibitors [compounds of formula (I)] by measuring the incorporation of ^33P from [γ^33P] ATP into appropriate substrates. The assay is carried out in 96-well plates at ambient temperature for 30 minutes under conditions described below and terminated by the addition of 20 μL of 125 mM EDTA. Subsequently, 40 μL of the reaction mixture are transferred onto Immobilon-PVDF membrane (Millipore) previously soaked for 5 minutes with methanol, rinsed with water, then soaked for 5 minutes with 0.5% H3PO4 and mounted on vacuum manifold with disconnected vacuum source. After spotting all samples, vacuum is connected and each well-rinsed with 200 μL 0.5% H3PO4. Membranes are removed and washed 4× on a shaker with 1.0% H3PO4, once with ethanol. Membranes are counted after drying at ambient temperature, mounting in Packard TopCount 96-well frame, and addition of 10 μl/well of Microscint™ (Packard). IC50 values of compounds of formula (I) are calculated by linear regression analysis of the percentage inhibition of each compound in duplicate, at four concentrations (usually 0.01, 0.1, 1 and 10 μM). […]
In general, pIC50 refers to the negative decadic logarithm of the IC50, by convention in mol/L. With `NCCCc1ccc(-n2cnc3cnc4ccc(C#Cc5ccc6c(c5)OCO6)cc4c32)cc1` [Example 12, 3-[4-(8-Benzo[1,3]dioxol-5-ylethynyl-imidazo[4,5-c]quinolin-1-yl)-phenyl]-propylamine], the pIC50 was not below 6.30.
For `COc1ccc(C#Cc2ccc3ncc4ncn(-c5ccc(CCN)cc5)c4c3c2)cc1` [Example 3, 2-{4-[8-(4-Methoxy-phenylethynyl)-imidazo[4,5-c]quinolin-1-yl]-phenyl}-ethylamine] the value was not below 6.30.
For the molecule `NCCCc1ccc(-n2cnc3cnc4cc(Cl)c(C#Cc5cccnc5)cc4c32)cc1` [Example 23, 3-[4-(7-Chloro-8-pyridin-3-ylethynyl-imidazo[4,5-c]quinolin-1-yl)-phenyl]-propylamine], the pIC50 is 6.00 to 6.30.
In the case of `NCCCc1ccc(-n2cnc3cnc4ccc(C#Cc5ccc(S(N)(=O)=O)cc5)cc4c32)cc1` [Example 13, 4-{1-[4-(3-Amino-propyl)-phenyl]-1H-imidazo[4,5-c]quinolin-8-ylethynyl}-benzenesulfonamide], the pIC50 is not below 6.30.
Under `Cc1nc2cnc3ccc(C#Cc4cccnc4)cc3c2n1-c1ccc(CCN)cc1` [Example 35, 2-[4-(2-Methyl-8-pyridin-3-ylethynyl-imidazo[4,5-c]quinolin-1-yl)-phenyl]-ethylamine] stands not below 6.30; under `Cc1nc2cnc3ccc(C#Cc4ccccc4)cc3c2n1-c1ccc(CCN)cc1` [Example 32, 2-[4-(2-Methyl-8-phenylethynyl-imidazo[4,5-c]quinolin-1-yl)-phenyl]-ethylamine], not below 6.30; under `NCCc1ccc(-n2cnc3cnc4cc(F)c(C#Cc5ccc6c(c5)OCO6)cc4c32)cc1` [Example 30, 2-[4-(7-Fluoro-8-benzo[1,3]dioxol-5-ylethynyl-imidazo[4,5-c]quinolin-1-yl)-phenyl]-ethylamine], 6.00 to 6.30.
For `NCCc1ccc(-n2cnc3cnc4ccc(C#Cc5cccnc5)cc4c32)cc1` [Example 4, 2-[4-(8-Pyridin-3-ylethynyl-imidazo[4,5-c]quinolin-1-yl)-phenyl]-ethylamine] the value was not below 6.30; for `COc1ccc(C#Cc2cc3c(cc2F)ncc2ncn(-c4ccc(CCN)cc4)c23)cc1` [Example 28, 2-{4-[7-Fluoro-8-(4-methoxy-phenylethynyl)-imidazo[4,5-c]quinolin-1-yl]-phenyl}-ethylamine], not below 6.30.
Regarding `NCCc1ccc(-n2cnc3cnc4cc(F)c(C#Cc5ccccc5)cc4c32)cc1` [Example 26, 2-[4-(7-Fluoro-8-phenylethynyl-imidazo[4,5-c]quinolin-1-yl)-phenyl]-ethylamine], the pIC50 is 6.00 to 6.30.
Regarding `COc1cccc(C#Cc2ccc3ncc4nc(C)n(-c5ccc(CCN)cc5)c4c3c2)c1` [Example 33, 2-{4-[8-(3-Methoxy-phenylethynyl)-2-methyl-imidazo[4,5-c]quinolin-1-yl]-phenyl}-ethylamine], the negative-log IC50 (pIC50) is 6.00 to 6.30.
For `COc1cccc(C#Cc2cc3c(cc2F)ncc2ncn(-c4ccc(CCN)cc4)c23)c1` [Example 27, 2-{4-[7-Fluoro-8-(3-methoxy-phenylethynyl)-imidazo[4,5-c]quinolin-1-yl]-phenyl}-ethylamine], the pIC50 is 6.00 to 6.30.
Under `NCCCc1ccc(-n2cnc3cnc4ccc(C#Cc5ccccc5)cc4c32)cc1` [Example 8, 3-[4-(8-Phenylethynyl-imidazo[4,5-c]quinolin-1-yl)-phenyl]-propylamine] stands not below 6.30; under `NCCc1ccc(-n2cnc3cnc4cc(F)c(C#Cc5cccnc5)cc4c32)cc1` [Example 29, 2-[4-(7-Fluoro-8-pyridin-3-ylethynyl-imidazo[4,5-c]quinolin-1-yl)-phenyl]-ethylamine], 6.00 to 6.30.
Take `COc1cccc(C#Cc2ccc3ncc4ncn(-c5ccc(CCCN)cc5)c4c3c2)c1` [Example 9, 3-{4-[8-(3-Methoxy-phenylethynyl)-imidazo[4,5-c]quinolin-1-yl]-phenyl}-propylamine]: the pIC50 was not below 6.30.
As to `NCCCc1ccc(-n2cnc3cnc4ccc(/C=C/c5ccccc5)cc4c32)cc1` [Example 38, 3-[4-(8-trans-Styryl-imidazo[4,5-c]quinolin-1-yl)-phenyl]-propylamine], the pIC50 was not below 6.30.
On to `COc1ccc(C#Cc2ccc3ncc4nc(C)n(-c5ccc(CCN)cc5)c4c3c2)cc1` [Example 34, 2-{4-[8-(4-Methoxy-phenylethynyl)-2-methyl-imidazo[4,5-c]quinolin-1-yl]-phenyl}-ethylamine], for which the pIC50 is not below 6.30.
Turning to `NCCCc1ccc(-n2cnc3cnc4ccc(C#Cc5cccnc5)cc4c32)cc1` [Example 11, 3-[4-(8-Pyridin-3-ylethynyl-imidazo[4,5-c]quinolin-1-yl)-phenyl]-propylamine], the negative-log IC50 (pIC50) is not below 6.30.
`COc1ccc(C#Cc2ccc3ncc4ncn(-c5ccc(CCCN)cc5)c4c3c2)cc1` [Example 10, 3-{4-[8-(4-Methoxy-phenylethynyl)-imidazo[4,5-c]quinolin-1-yl]-phenyl}-propylamine]: the pIC50 was not below 6.30.
